The structures appear in SMILES notation. Converted amounts (≈) assume the structure as drawn.

The conditions of the data set: buffer; pH 7.4; 200.0 µM.
The kinetic solubility is the concentration staying in solution when a stock, usually in DMSO, is diluted into the medium. For the molecule `NCCc1cnc[nH]1`, the solubility (kinetic) was found to be 14.1 µg/mL (≈ 127 µM).
To `CC1CCN(CCC(=O)Nc2ccccc2)CC1` belongs 29.5 µg/mL (≈ 120 µM).
To `COc1ccccc1CNCC(c1ccccc1)c1ccccc1` belongs 33.6 µg/mL (≈ 106 µM); to `O=c1c2ccccc2ncn1CCOCCOc1ccc([N+](=O)[O-])cc1`, 17.1 µg/mL (≈ 48.1 µM); to `Cc1ccc(S(=O)(=O)Nc2c(C)cc(C)nc2Cl)cc1`, more than 46.6 µg/mL.
Next, `COc1ccc(-n2c(C)nc(N)c2C(=O)c2ccccc2)cc1`: 19.8 µg/mL (≈ 64.4 µM); `COc1ccc(C(=O)NCCONC(=O)c2ccc(OC)cc2)cc1`: 50.6 µg/mL (≈ 147 µM).
Regarding `Cc1noc(C)c1S(=O)(=O)Nc1ccc(C(C)C)cc1`, the kinetic solubility is more than 44.2 µg/mL.
To `CC(=O)NCCc1nc2cc(NC(=O)c3ccccc3Cl)ccc2n1C` belongs more than 55.6 µg/mL; to `C=CCSC1=NN2CCS(=O)(=O)N=C2S1`, more than 39.5 µg/mL.
With `C=CCOc1ccc(/C=C2/C(=O)ON=C2C)cc1OC`, the kinetic solubility worked out at 26.2 µg/mL (≈ 95.9 µM).
To `Cc1ccc(NC(=O)C2=CC=CN3CCS(=O)(=O)N=C23)cc1` belongs 11.6 µg/mL (≈ 36.6 µM); to `O=C(Nc1cccc([N+](=O)[O-])c1)C1C2/C=C\CCCCC21` (stereo unspecified), less than 0.3 µg/mL.
To `CC(C)[C@H](Nc1ccc(C(F)(F)F)cc1[N+](=O)[O-])C(=O)O.[Cl-]` belongs more than 51.3 µg/mL; to `CCOC(=O)c1cc([N+](=O)[O-])sc1N`, 4.6 µg/mL (≈ 21.3 µM).
To `CCOc1ncccc1C(=O)Nc1ccc(F)c(F)c1` belongs 6.7 µg/mL (≈ 24.1 µM); to `Cc1cc(C(=O)Nc2ccc(F)cc2C)n(-c2ccccc2)n1`, more than 46.4 µg/mL; to `CC(C)(C)C(=O)Nc1ccc(-c2cn3cccnc3n2)cc1`, 42.6 µg/mL (≈ 145 µM).
On to `Cc1ccc(S(=O)(=O)N2CCOCC2)cc1NC(=O)COC(=O)c1ccc(Br)cc1`, for which the kinetic solubility was determined as 5.3 µg/mL (≈ 10.7 µM).
To `Oc1ccccc1CNc1cccc2cccnc12` belongs 19.3 µg/mL (≈ 77.1 µM); to `CC(=O)N/C(=C\c1ccccc1)C(=O)OCc1ccccc1`, more than 44.3 µg/mL.
Take `COc1ccccc1-n1c(-c2ccc(C)cc2)nc2ccccc2c1=O`: the kinetic solubility is 3.3 µg/mL (≈ 9.64 µM).
Turning to `O=C1c2ccccc2C(=O)N1Cc1ccccc1F`, the solubility (kinetic) stood at 1.5 µg/mL (≈ 5.88 µM).
`CCOC(=O)C1CCN(C(=O)c2cc3cc(Cl)ccc3[nH]2)CC1` showed a solubility (kinetic) of 19 µg/mL (≈ 56.7 µM).
To `C=CCc1cccc(CNc2nc3ccccc3n2C)c1O` belongs 0.3 µg/mL (≈ 1.02 µM).
To `COc1ccc(C(=O)NCC2CCCCC2)cc1S(=O)(=O)N1CCOCC1` belongs more than 59.5 µg/mL; to `O=c1[nH]c2ccccc2n2c(C(F)(F)F)nnc12`, more than 38.1 µg/mL; to `Cc1c(C(=O)Nc2ccccn2)oc2c(Cl)cccc12`, 9.4 µg/mL (≈ 32.8 µM).
To `CC(=O)c1ccc(-c2ccc(C(=O)NC3CCCCCC3)o2)cc1` belongs 6.7 µg/mL (≈ 20.6 µM).
Consider `Cc1ccc(C(C)NC(=O)c2cccs2)cc1C` (stereo unspecified), for which the solubility (kinetic) is 5.7 µg/mL (≈ 22 µM).
Next, `O=C(c1ccccc1)N1CCCCC(Cl)C1=O` (stereo unspecified): more than 37.8 µg/mL.
To `CCSC1=N/C(=C\c2ccccc2)C(=O)N1c1ccc(OC)cc1` belongs less than 0.4 µg/mL; to `CC(Oc1cccc(Br)c1)C(=O)Nc1cccc(S(=O)(=O)N2CCOCC2)c1` (stereo unspecified), 16.2 µg/mL (≈ 34.5 µM); to `O=C(NC(=S)NCCc1ccccc1)c1cccc(Cl)c1`, 0.6 µg/mL (≈ 1.88 µM).
`Cc1cc(-c2onc(C)c2C(=O)Oc2ccc(Cl)cc2)no1`: the kinetic solubility amounted to 0.5 µg/mL (≈ 1.57 µM).
As for `C=CCn1c(O)c(C(C)=Nc2cccc(C(F)(F)F)c2)c(=O)[nH]c1=O`, the solubility (kinetic) was found to be 4 µg/mL (≈ 11.3 µM).
To `CCOC(=O)N1CCN(CC(=O)c2ccc(O)cc2O)CC1` belongs more than 46.3 µg/mL.
For `O=C(COC(=O)Cc1ccc(Br)cc1)NCC1CCCO1` (stereo unspecified), the kinetic solubility is more than 53.4 µg/mL.
To `N#CC1(Nc2cccc(Br)c2)C(=O)Nc2ccccc21` (stereo unspecified) belongs more than 49.2 µg/mL; to `O=C(COC(=O)Cc1cccc(C(F)(F)F)c1)NC(=O)NC1CCCC1`, 32.1 µg/mL (≈ 86.2 µM); to `Cc1ccc(NC(=O)N2CCc3ccccc3C2)cc1C`, 0.9 µg/mL (≈ 3.21 µM).
Next, `COCCNC(=O)c1ccc(-c2csc(C)n2)cc1`: more than 41.5 µg/mL; `Cc1cccc[n+]1CC(=O)c1ccc(Cl)cc1.[Cl-]`: 32.9 µg/mL; `CNc1nc(-c2ccccc2)cc(-c2ccccc2)n1`: 1.4 µg/mL (≈ 5.36 µM).
`COc1cc(CN2CCSCC2)c([N+](=O)[O-])cc1OC` yielded a solubility (kinetic) of 35.2 µg/mL (≈ 118 µM).
Next, `CCOC(=O)C(=O)C1=CN(Cc2ccccc2)C=C(C#N)C1`: more than 44.4 µg/mL; `COc1ccc(C(=O)NCC(=O)NCc2ccncc2)cc1`: more than 44.9 µg/mL.
Next, `Cc1nc2ccccc2c2c1C(=O)NC2=O`: more than 31.8 µg/mL; `COC(=O)CNC(=O)COC(=O)/C=C/c1ccccc1[N+](=O)[O-]`: 41.3 µg/mL (≈ 128 µM); `O=C(NCCN1CCCCC1)Nc1cccc(Cl)c1Cl`: less than 0.2 µg/mL.
To `Cc1ccc(CNC(=O)COC(=O)c2cnc(C)cn2)cc1` belongs more than 44.9 µg/mL.
For the molecule `Fc1ccccc1OCCn1c(=S)[nH]c2ccccc21`, the solubility (kinetic) is 6 µg/mL (≈ 20.8 µM).
To `Cc1cc(C(=O)NCc2ccc3c(c2)OCO3)ccc1[N+](=O)[O-]` belongs 38.7 µg/mL (≈ 123 µM); to `Cc1ccccc1C(=O)c1c[nH]c(C(=O)NCCc2ccccn2)c1`, more than 50 µg/mL; to `O=C(NCC1CCCN(C2Cc3ccccc3C2)C1)c1cccs1` (stereo unspecified), 40.1 µg/mL (≈ 118 µM).
Next, `O=C(COc1cccnc1[N+](=O)[O-])NCc1ccccc1`: more than 43.1 µg/mL; `Cc1nc2ccc(NC(=O)CCC3CCCC3)cc2s1`: 8.9 µg/mL (≈ 30.9 µM); `COCC(C)Nc1nc(C)c(C(C)=O)s1` (stereo unspecified): more than 34.2 µg/mL.
Next, `CN(C)C/C=C/C(O)(c1ccccc1)c1ccccc1`: more than 40.1 µg/mL; `Cc1c([N+](=O)[O-])c([N+](=O)[O-])nn1CC(=O)N1CCOCC1`: more than 44.9 µg/mL; `O=C(O)CNC(=S)N(Cc1ccccc1F)C1CCCCC1`: more than 48.7 µg/mL.
`Cc1ccc2oc(C(=O)NCCC3CCCCO3)c(C)c2c1` (stereo unspecified) had a kinetic solubility of 43.1 µg/mL (≈ 143 µM).
To `CC(C)N1C(=O)C(=O)N(CC(=O)N(C)c2ccccc2)C1=O` belongs more than 45.5 µg/mL; to `N#C/C(=C/c1ccc(F)cc1)S(=O)(=O)c1ccccc1`, 37.5 µg/mL (≈ 131 µM); to `CC1CCCC(NC(=O)COC(=O)c2ccc([N+](=O)[O-])o2)C1C` (stereo unspecified), 18.4 µg/mL (≈ 56.7 µM).
Next, `COCCCNC(=O)C(C)N1c2cccc3cccc(c23)S1(=O)=O` (stereo unspecified): 50.2 µg/mL (≈ 144 µM); `COc1ccccc1C(=O)OCC(=O)NC(=O)NC1CCCC1`: more than 48.1 µg/mL; `CCc1cc2c(NC(Cc3ccccc3)C(=O)O)ncnc2s1` (stereo unspecified): more than 49.1 µg/mL.
To `COc1ccc(CCC(=O)NCCc2cnc[nH]2)cc1` belongs 35.2 µg/mL (≈ 129 µM).
Consider `CN(/C=C/c1c([N+](=O)[O-])c(=O)n(C)c(=O)n1C)c1ccccc1`, for which the kinetic solubility is 4.9 µg/mL (≈ 15.5 µM).
Next, `Cc1nc(C)c(Oc2cccc(C(F)(F)F)c2)c(=O)[nH]1`: 38.2 µg/mL (≈ 134 µM); `O=C(c1ccc(F)cc1)N1CCC(c2ccccc2)C1` (stereo unspecified): 39.8 µg/mL (≈ 148 µM); `COc1cccc(N2C(=O)c3cccnc3C2O)c1` (stereo unspecified): 34.4 µg/mL (≈ 134 µM).
With `COc1ccc(/C=C/C(=O)NCCN2CCOCC2)cc1OC`, the solubility (kinetic) is more than 48.1 µg/mL.
Regarding `Cc1nc2c(C)cccc2c2c1CCS2`, the solubility (kinetic) was determined as 0.5 µg/mL (≈ 2.32 µM).
Next, `Cc1ccc(C)c(CN2CCN(c3ncccn3)CC2)c1`: 17.4 µg/mL (≈ 61.6 µM).
Next, `CCCc1cc(=O)[nH]c(SCC(=O)Nc2cc(S(=O)(=O)N3CCOCC3)ccc2Cl)n1`: 63.8 µg/mL (≈ 131 µM); `COc1ccc(NC(=O)c2cc(-c3ccccn3)nc3ccccc23)c(OC)c1`: 3.8 µg/mL (≈ 9.86 µM).
`COc1cc(C)c(NC(=O)c2cccc(S(=O)(=O)N3CCCC3)c2)cc1OC` returned a solubility (kinetic) of 32.5 µg/mL (≈ 80.3 µM).
In turn, `O=C1CN(C(=O)COc2ccccc2)c2ccccc2N1` showed a solubility (kinetic) of more than 42.3 µg/mL.
Next, `Cc1ccc(C(=O)NCC(=O)NCc2ccccc2F)s1`: more than 46 µg/mL; `CC1CCN(CC(=O)Nc2nc(-c3ccccc3)cs2)CC1`: 12.9 µg/mL (≈ 40.9 µM).
On to `Cc1ccc(NC(=O)Nc2ccon2)cc1`, for which the kinetic solubility is more than 32.6 µg/mL.
To `CCOc1ccc2nc(SCC3CC3(Cl)Cl)[nH]c2c1` (stereo unspecified) belongs 29.4 µg/mL (≈ 92.7 µM); to `O=C(Nc1ccc(F)cc1F)Nc1sccc1-c1nc2ccccc2s1`, 0.3 µg/mL (≈ 0.774 µM); to `O=C1CCCN1CCCNS(=O)(=O)c1cccs1`, more than 43.3 µg/mL.
To `CN1CCN(c2nc3c(c(=O)[nH]2)CCC3)CC1` belongs more than 35.1 µg/mL.
Next, `CNc1nc2c(C)cccn2c(=O)c1C=Nc1ccc(OC)cc1`: 0.9 µg/mL (≈ 2.79 µM).
For the molecule `COc1ccccc1NC(=O)C(=O)N1CCCC1`, the solubility (kinetic) amounted to 35.3 µg/mL (≈ 142 µM).
For the molecule `Cn1ccnc1SCC(=O)NCC(=O)Nc1ccc(F)c(F)c1F`, the kinetic solubility was more than 53.7 µg/mL.
For the molecule `CSc1cccc(NC(=S)NC(=O)c2cccnc2)c1`, the kinetic solubility is 5.1 µg/mL (≈ 16.8 µM).
Molecule `O=C(NCc1ccccc1)c1cccnc1Sc1ccccc1` registered a solubility (kinetic) of 10.6 µg/mL (≈ 33.1 µM).
Next, `Cc1nc(N)ncc1C(=O)Nc1ccccc1`: 19 µg/mL (≈ 83.2 µM).
Next, `CNC(=O)c1c(NC(=O)C(C)C)sc2c1CCC2`: 36.5 µg/mL (≈ 137 µM); `Cc1ccc(OCC(=O)Nc2cc(C(C)(C)C)on2)cc1C`: 3.9 µg/mL (≈ 12.9 µM).
To `Cn1ccnc1SCc1cccc([N+](=O)[O-])c1` belongs more than 37.4 µg/mL.
Take `OCC(O)C1OC(Nc2ccc(Cl)cc2)C(O)C1O` (stereo unspecified): the kinetic solubility was more than 43.5 µg/mL.
Take `COc1cc2nc(C(C)(C)C)oc(=O)c2cc1OC`: the solubility (kinetic) is more than 39.5 µg/mL.
To `C=CCc1cccc2cc(C(=O)NCCOC)c(=O)oc12` belongs 41.5 µg/mL (≈ 144 µM); to `Br.CCSC(=Nc1ccccc1)N1CCOCC1`, 43.9 µg/mL; to `CCOC(=O)c1ccc(-c2ccc3c(c2)CCC3)nc1C`, less than 0.6 µg/mL.
To `O=C(NCc1ccco1)c1ccc2nccnc2c1` belongs more than 38 µg/mL; to `N#Cc1c(Cl)nc2c(c1C#N)CCCC2`, more than 32.6 µg/mL.
Next, `O=c1[nH]c(N2CCOCC2)nc2ccccc12`: more than 34.7 µg/mL.
Molecule `COc1ccc(CNc2ccc(N3CCOCC3)cc2)cc1` showed a solubility (kinetic) of 40.9 µg/mL (≈ 137 µM).
Next, `O=C1/C(=C\c2ccncc2)N2CCC1CC2`: more than 32.1 µg/mL.

The values are drawn from PubChem BioAssay AID1996.
